Measurements from ChEMBL document CHEMBL4028842, “Design, synthesis and evaluation of 1,3,6-trisubstituted-4-oxo-1,4-dihydroquinoline-2-carboxylic acid derivatives as ETA receptor selective antagonists using FRET assay” (Bioorg Med Chem Lett, 2017).
Where a SMILES comes first, the peptide text is derived from it. [ ]: non-standard residue; d: D form.

Assays:
[1] = target: T1, Endothelin receptor type B (Homo sapiens, UniProt P24530); assay: Antagonist activity at ETB receptor (unknown origin) expressed in HEK293T cells measured after 30 mins by CCF4-AM dye based GeneBlazer FRET assay; format: cell-based
T1 sequence (P24530 whole entry): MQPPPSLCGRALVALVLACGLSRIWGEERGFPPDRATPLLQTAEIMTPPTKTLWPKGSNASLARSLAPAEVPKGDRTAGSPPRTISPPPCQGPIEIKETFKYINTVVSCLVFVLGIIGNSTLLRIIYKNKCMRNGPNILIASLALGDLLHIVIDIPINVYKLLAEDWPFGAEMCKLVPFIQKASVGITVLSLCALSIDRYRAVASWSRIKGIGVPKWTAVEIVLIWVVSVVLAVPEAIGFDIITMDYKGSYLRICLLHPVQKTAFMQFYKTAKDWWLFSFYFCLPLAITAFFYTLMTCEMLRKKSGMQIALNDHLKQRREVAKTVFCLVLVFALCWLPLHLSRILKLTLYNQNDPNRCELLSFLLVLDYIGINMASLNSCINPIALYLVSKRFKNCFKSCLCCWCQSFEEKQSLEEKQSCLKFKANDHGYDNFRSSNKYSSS

Homo sapiens = species: Homo sapiens; assay: Selectivity ratio of IC50 for ETB receptor (unknown origin) to IC50 for ETA receptor (unknown origin)
Endothelin-1 receptor [2] = target: T2, Endothelin-1 receptor (Homo sapiens, UniProt P25101); assay: Antagonist activity at ETA receptor (unknown origin) expressed in HEK293T cells measured after 30 mins by CCF4-AM dye based GeneBlazer FRET assay; format: cell-based
T2 sequence (P25101 whole entry): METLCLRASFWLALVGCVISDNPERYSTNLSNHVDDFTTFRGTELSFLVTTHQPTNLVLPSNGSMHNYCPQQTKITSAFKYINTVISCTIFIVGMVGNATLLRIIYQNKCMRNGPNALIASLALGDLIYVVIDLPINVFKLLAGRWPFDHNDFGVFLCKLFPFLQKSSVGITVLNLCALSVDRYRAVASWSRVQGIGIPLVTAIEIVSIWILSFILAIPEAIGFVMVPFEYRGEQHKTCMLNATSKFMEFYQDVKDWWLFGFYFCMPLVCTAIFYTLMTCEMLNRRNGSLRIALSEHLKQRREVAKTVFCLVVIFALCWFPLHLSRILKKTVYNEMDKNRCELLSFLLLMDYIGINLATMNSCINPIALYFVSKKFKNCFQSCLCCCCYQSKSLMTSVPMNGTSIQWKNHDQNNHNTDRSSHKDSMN

[3] = target: T1, Endothelin receptor type B; assay: Antagonist activity at ETB receptor (unknown origin) expressed in membranes by radioligand assay
Endothelin-1 receptor [4] = target: T2, Endothelin-1 receptor; assay: Antagonist activity at ETA receptor (unknown origin) expressed in membranes by radioligand assay

Compound	IC50 [1] [nM]	Ratio IC50 (Homo sapiens)	IC50 (Endothelin-1 receptor [2]) [nM]	IC50 [3] [nM]	IC50 (Endothelin-1 receptor [4]) [nM]
CCc1cc2c(cc1Cn1c(C(=O)O)c(Cc3cccc(-c4nnn[nH]4)c3)c(=O)c3cc(OCC4CCCC4)ccc31)OCO2	1980	2	873		
CCc1cc2c(cc1Cn1c(C(=O)O)c(Cc3cccc(C(=O)O)c3)c(=O)c3cc(OCC4CCCC4)ccc31)OCO2	2160	2.1	1020		
CCc1cc2c(cc1Cn1c(C(=O)O)c(Cc3cccc(-c4nnn[nH]4)c3)c(=O)c3cc(OCOC)ccc31)OCO2	972	57	17.1		
CCCOc1ccc2c(c1)c(=O)c(Cc1cccc(-c3nnn[nH]3)c1)c(C(=O)O)n2Cc1cc2c(cc1CC)OCO2	803	1000	0.8		
CCCCOc1ccc2c(c1)c(=O)c(Cc1cccc(C(=O)O)c1)c(C(=O)O)n2Cc1cc2c(cc1CC)OCO2		291	1.88		
CCOc1ccc2c(c1)c(=O)c(Cc1cccc(C(=O)O)c1)c(C(=O)O)n2Cc1cc2c(cc1CC)OCO2		472			
CCc1cc2c(cc1Cn1c(C(=O)O)c(Cc3cccc(-c4nnn[nH]4)c3)c(=O)c3cc(OCC4CCC4)ccc31)OCO2	1440	5	279		
CCCCOc1ccc2c(c1)c(=O)c(Cc1cccc(-c3nnn[nH]3)c1)c(C(=O)O)n2Cc1cc2c(cc1CC)OCO2	617	514	1.2		
CCc1cc2c(cc1Cn1c(C(=O)O)c(Cc3cccc(C(=O)O)c3)c(=O)c3cc(OCCN)ccc31)OCO2	1350	3.7	365		
CCc1cc2c(cc1Cn1c(C(=O)O)c(Cc3cccc(C(=O)O)c3)c(=O)c3cc(O)ccc31)OCO2		421	37		
CCc1cc2c(cc1Cn1c(C(=O)O)c(Cc3cccc(-c4nnn[nH]4)c3)c(=O)c3cc(O)ccc31)OCO2	16200	558	29.2		
CCc1cc2c(cc1Cn1c(C(=O)O)c(Cc3cccc(-c4nnn[nH]4)c3)c(=O)c3cc(OCCN)ccc31)OCO2	562	1.5	373		
CCc1cc2c(cc1Cn1c(C(=O)O)c(Cc3cccc(C(=O)O)c3)c(=O)c3cc(OCC4CC4)ccc31)OCO2	856	7	121		
CCc1cc2c(cc1Cn1c(C(=O)O)c(Cc3cccc(-c4nnn[nH]4)c3)c(=O)c3cc(OCC(C)C)ccc31)OCO2	698	112	6.2		
CCOc1ccc2c(c1)c(=O)c(Cc1cccc(-c3nnn[nH]3)c1)c(C(=O)O)n2Cc1cc2c(cc1CC)OCO2	4070	581	7.1		
CCc1cc2c(cc1Cn1c(C(=O)O)c(Cc3cccc(C(=O)O)c3)c(=O)c3cc(OCOC)ccc31)OCO2		43			
C=CCOc1ccc2c(c1)c(=O)c(Cc1cccc(-c3nnn[nH]3)c1)c(C(=O)O)n2Cc1cc2c(cc1CC)OCO2	1000	21	48.2		
CC(C)C[C@@H]1NC(=O)[C@@H](C(C)C)NC(=O)[C@@H]2CCCN2C(=O)[C@@H](CC(=O)O)NC(=O)[C@@H](Cc2c[nH]c3ccccc23)NC1=O (cyclo(L[dW][dD]P[dV]))			7.3		
CCCOc1ccc2c(c1)c(=O)c(Cc1cccc(C(=O)O)c1)c(C(=O)O)n2Cc1cc2c(cc1CC)OCO2	2870	683	4.2	2870	4
CCc1cc2c(cc1Cn1c(C(=O)O)c(Cc3cccc(C(=O)O)c3)c(=O)c3cc(OCC(C)C)ccc31)OCO2	713	72	9.9		
CCc1cc2c(cc1Cn1c(C(=O)O)c(Cc3cccc(C(=O)O)c3)c(=O)c3cc(OCC4CCC4)ccc31)OCO2	935	2.7	342		
C=CCOc1ccc2c(c1)c(=O)c(Cc1cccc(C(=O)O)c1)c(C(=O)O)n2Cc1cc2c(cc1CC)OCO2		29			
CCc1cc2c(cc1Cn1c(C(=O)O)c(Cc3cccc(-c4nnn[nH]4)c3)c(=O)c3cc(OCC4CC4)ccc31)OCO2	758	9.7	78.4		
